US10940188B2, “Compounds and methods for treatment and prevention of Flavivirus infection” (priority 2016, dated 2021)
Like-named read-outs stand apart in the source and are kept apart here.

Columns and labels:
[1] = system: ZIKV-induced caspase 3/7 activity in human astrocytes; assay: Caspase 3/7 activity assay, ZIKV-infected human astrocytes; assay type: cell-based; details: for IC50: read-out: Caspase 3 (IC50, uM) Astrocyte; for Emax: read-out: Caspase 3 (efficacy, %) Astrocyte
Procedure, shortened: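 Human NPCs, SNB-19 cells or astrocytes seeded 16 h, compound added 30 min before ZIKV, then 6 h infection at 37 °C. Caspase-Glo 3/7 luminescence after 30 min at room temperature, normalized to uninfected cells (0%) and ZIKV-infected cells (100%).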

[2] = system: ZIKV-induced cell death in human astrocytes; assay: ATP cell viability assay for ZIKV-induced cell death, human astrocytes; assay type: cell-based
[3] = system: ZIKV-induced cell death in hNPCs; assay: ATP cell viability assay for ZIKV-induced cell death, hNPCs; assay type: cell-based, human; details: for IC50: Homo sapiens
Method: (§1) The reagent was reconstituted and prepared as described by the manufacturer. In order to measure the cell death caused by ZIKV infection, cells were cultured for 16 hours at 37° C. with 5% CO2 in assay plates, followed by the addition of ZIKV solution and incubation at 37° C. with 5% CO2 for 72 hours. ATPlite, the ATP monitoring reagent, was then added to the assay plates and they were incubated for 15 minutes. The resulting luminescence was measured using the ViewLux plate reader (Perkin Elmer). Data were normalized using the wells without cells as a control for 100% cell killing, and cell-containing wells without ZIKV infection were used as full cell viability (0% cell killing).
Human NPCs were seeded onto PDL coated 1536-well assay plates at 250 cells per 3 μl/well and incubated at 37° C. in 5% CO2 for 16 hours. Test compounds dissolved in DMSO were transferred to assay plates at a volume of 23 nl/well by an automated pintool workstation (Wako Automation, San Diego, Calif.). Compounds were incubated with cells for 30 minutes at 37° C. in 5% CO2, immediately followed by the addition of 2 μl/well of ZIKV. Incubation time of compound-treated cells with ZIKV varied based on assay format. Experiments measuring virus-induced caspase 3/7 activity required a 6 hour incubation of ZIKV in the presence compounds at 37° C. in 5% CO2. Following this incubation, 3.5 μl/well of caspase 3/7 reagent mixture was added to assay plates. The plates were incubated for 30 minutes at room temperature, and the resultant luminescence signal was measured using a ViewLux plate reader (Perkin Elmer). Experiments measuring virus-induced cell death required a 72-hour incubation of ZIKV in the presence of compounds at 37° C. in 5% CO2. Following this incubation, 3.5 μl/well of ATP content detection reagent was added to assay plates, incubated for 30 minutes at the room temperature, and the resultant luminescence signal was measured in a ViewLux plate reader.
as §1, with “The ATPlite luminescence assay system assay kit (PerkinElmer) was used to determine cell viability. The reagent” for “The reagent”, “by the manufacture. In order” for “by the manufacturer. In order”, “followed by addition of” for “followed by the addition of”, “plates and incubated for” for “plates and they were incubated for”, “Elmer). Data was normalized using” for “Elmer). Data were normalized using”
Human NPCs were seeded onto PDL coated 1536-well assay plates at 250 cells per 3 μl/well and incubated at 37° C. in 5% CO2 for 16 hours. Test compounds dissolved in DMSO were transferred to assay plates at a volume of 23 nl/well by an automated pintool workstation (Wako Automation, San Diego, Calif.). Compounds were incubated with cells for 30 minutes at 37° C. in 5% CO2, immediately followed by the addition of 2 μl/well of ZIKV. Incubation time of compound-treated cells with ZIKV varied based on assay format. Experiments measuring virus induced caspase 3/7 activity required a 6 hour incubation of ZIKV in the presence compounds at 37° C. in 5% CO2. Following this incubation, 3 μl/well of caspase 3/7 reagent mixture was added to assay plates, incubated for 30 minute at room temperature, and the resultant luminescence signal was measured using a ViewLux plate reader (Perkin Elmer). Experiments measuring the virus induced cell death required a 72 hour incubation of ZIKV in the presence of compounds at 37° C. in 5% CO2. Following this incubation, 3 μl/well of ATP content detection reagent was added to assay plates, incubated for 30 minute at room temperature, and the resultant luminescence signal was measured in a ViewLux plate reader.

[4] = Astrocyte, ZIKV-infected human astrocytes
[5] = Astrocyte, ZIKV-infected human astrocytes, read-out: Cell viability (IC50, uM) Astrocyte
[6] = Homo sapiens, Astrocyte, following ZIKV infection, read-out: IC50 (μM) for improving cell viability, Astrocytes
[7] = ZIKV-infected hNPCs, read-out: Cell viability (IC50, uM) NPCs

Row | Compound | IC50 [1, 4] [µM] | Emax [1, 4] [%] | Cell viability (efficacy, %) Astrocyte ([2]; ZIKV-infected human astrocytes) [%] | Cell viability (efficacy, %) NPCs ([3]; ZIKV-infected hNPCs) [%] | also measured
1 | Cc1ccc(O)c(-n2nc3ccccc3n2)c1 [2-(2H-Benzotriazol-2-yl)-4-methylphenol] | 9.2 | 68.5 | 0.0 | 0.0 | 
2 | Nc1nc2ccc([N+](=O)[O-])cc2s1 [2-Amino-6-nitrobenzothiazole] | 39.8 | 54.1 | 0.0 | 0.0 | 
3 | CCOCCOC(=O)C=Cc1ccc(OC)cc1 [2-Ethoxylethyl-p-methoxycinnamate] |  | 0 | 0.0 | 0.0 | 
4 | O=C(O)c1cc([N+](=O)[O-])ccc1NCCCc1ccccc1 [5-Nitro-2-(3-phenylpropylamino)benzoic acid] | 9.75 | 82.1 | 0.0 | 0.0 | 
5 | O=C1NC(=O)/C(=C/c2ccc(-c3ccc(F)cc3O)o2)S1 [AS-252424] |  |  | 0.0 | 0.0 | Caspase 3 (efficacy, %) Astrocyte ([1]; ZIKV-infected human astrocytes): 37.5%; IC50 ([1]; ZIKV-infected human astrocytes): 1.73 µM
6 | O=C1c2ccccc2C(=O)c2c1ccc(O)c2O [Alizarin] | 30.8 | 47.9 | 0.0 | 0.0 | 
7 | COc1ccc(-c2cc(=S)ss2)cc1 [Anethole trithione] | 13.8 | 62.7 | 0.0 | 0.0 | 
8 | N#CC1(c2ccc(NC(=O)c3cccnc3NCc3ccncc3)cc2)CCCC1 [Apatinib] | 19.5 | 57.9 | 0.0 | 0.0 | 
9 | O=C(Nc1ccc(C(=O)O)c(O)c1)c1ccccc1 [Benzoylpas] | 5.81 | 94.9 | 0.0 | 0.0 | 
10 | O=C(OCc1ccccc1)c1ccc(O)cc1 [Benzylparaben] | 17.3 | 62.8 | 0.0 | 0.0 | 
11 | O=C1NC(=O)C(=Cc2ccc(-c3ccc(F)cc3)o2)S1 [CAY10505] |  |  | 0.0 | 0.0 | Caspase 3 (efficacy, %) Astrocyte ([1]; ZIKV-infected human astrocytes): 80.1%; IC50 ([1]; ZIKV-infected human astrocytes): 16.4 µM
12 | CN(C)CCCSc1ccccc1NC(=O)/C=C/c1ccccc1 [Cinanserin] | 15.5 | 80.2 | 0.0 | 0.0 | 
13 | CC(=O)Oc1cccc2c1C(=O)c1c(OC(C)=O)cc(C(=O)O)cc1C2=O [Diacerein] | 15.5 | 72.9 | 35.2 | 0.0 | IC50 [2, 5]: 30.8 µM
14 | O=C(Oc1ccccc1)c1cccc(C(=O)Oc2ccccc2)c1 [Diphenyl isophthalate] | 6.68 | 104 | 0.0 | 0.0 | 
15 | Cc1cc(O)c2c(c1)C(=O)c1cc(O)cc(O)c1C2=O [Emodin] | 3.27 | 86.4 | 0.0 | 0.0 | 
16 | C[C@H](NC(=O)C(=O)Nc1ccccc1C(C)(C)C)C(=O)N[C@@H](CC(=O)O)C(=O)COc1c(F)c(F)cc(F)c1F [Emricasan] | 0.46 | 77.1 | 98.7 | 54.4 | IC50 [2, 5]: 4.11 µM; IC50 [2, 6]: 4.11 µM; IC50 [3, 7]: 3.88 µM; IC50 ([3]; following ZIKV infection, read-out: IC50 (μM) for improving cell viability, hNPCs): 3.88 µM
17 | O=C(O)c1ccccc1NCCc1ccccc1 [Enfenamic acid] | 25.9 | 58 | 0.0 | 58.5 | IC50 [3, 7]: 7.74 µM
18 | O=S(=O)(O)c1ccc2[nH]c(-c3ccccc3)nc2c1 [Ensulizole] |  |  | 0.0 | 0.0 | IC50 ([1]; Homo sapiens, Astrocyte): 1.95 µM; Emax ([1]; Homo sapiens, Astrocyte): 82.7%
19 | c1ccc(CCNc2nc(-c3ccccc3)cs2)cc1 [Fanetizole] | 10.9 | 72.9 | 0.0 | 0.0 | 
20 | O=C(O)CCC(=O)c1ccc(-c2ccccc2)cc1 [Fenbufen] | 21.8 | 81.5 | 0.0 | 0.0 | 
21 | CN1CC(=O)NC1=NC(=O)Nc1cccc(Cl)c1 [Fenobam] |  |  | 0.0 | 0.0 | Caspase 3 (efficacy, %) Astrocyte ([1]; ZIKV-infected human astrocytes): 97.2%; IC50 ([1]; ZIKV-infected human astrocytes): 9.2 µM
22 | O=C(O)c1ccccc1Nc1cccc(C(F)(F)F)c1 [Flufenamic acid] | 8.69 | 71.9 | 0.0 | 0.0 | 
23 | C/C1=C2/[N-][C@H]([C@H](CC(N)=O)[C@@]2(C)CCC(=O)NC[C@@H](C)OP(=O)([O-])O[C@H]2[C@@H](O)[C@@H](n3cnc4cc(C)c(C)cc43)O[C@@H]2CO)[C@]2(C)N=C(/C(C)=C3N=C(/C=C4N=C1[C@@H](CCC(N)=O)C\4(C)C)[C@@H](CCC(N)=O)[C@]\3(C)CC(N)=O)[C@@H](CCC(N)=O)[C@]2(C)CC(N)=O.[Co+3].[OH-] [Hydroxocobalamin] |  |  | 0.0 | 0.0 | Caspase 3 (efficacy, %) Astrocyte ([1]; ZIKV-infected human astrocytes): 83.4%; IC50 ([1]; ZIKV-infected human astrocytes): 0.97 µM
24 | CCC(C(=O)O)c1ccc(N2Cc3ccccc3C2=O)cc1 (centres unmarked) [Indobufen] | 6.52 | 86.3 | 0.0 | 0.0 | 
25 | O=C(c1ccccc1)c1ccc2n1CCC2C(=O)O (centres unmarked) [Ketorolac tromethamine] | 21.8 | 61.7 | 0.0 | 0.0 | 
26 | Cc1cccc(C#Cc2ccccc2)n1 [MPEP, 2-Methyl-6-(phenylethynyl)pyridine] | 5.81 | 118 | 0.0 | 0.0 | 
27 | O=C(Nc1ccc([N+](=O)[O-])cc1Cl)c1cc(Cl)ccc1O [Niclosamide] | 1.84 | 96.8 | 51.2 |  | IC50 [2, 5]: 1.73 µM; IC50 [2, 6]: 1.73 µM
28 | CC(=O)Nc1ccc([C@H](C)C(=O)Nc2ncc(C(C)C)s2)cc1 [PHA-690509] |  |  | 81.9 |  | Caspase 3 (efficacy, %) Astrocyte ([1]; ZIKV-infected human astrocytes): 71.6%; IC50 ([1]; ZIKV-infected human astrocytes): 13 µM; IC50 ([2]; ZIKV-infected human astrocytes, read-out: Cell viability (IC50, uM) Astrocyte): 7.74 µM; IC50 ([2]; following ZIKV infection, read-out: IC50 (μM) for improving cell viability, Astrocytes): 7.47 µM
